Literature values, collected in patent US20090074668A1, “Vldlr-/- mouse models and related methods” (priority 2007, published 2009).

System: VEGF
Settings: intraocular administration; in vitro and in vivo

CC1(C)O[C@@H]2C[C@H]3[C@@H]4CCC5=CC(=O)C=C[C@]5(C)[C@@]4(F)[C@@H](O)C[C@]3(C)[C@]2(C(=O)CO)O1 [Kenalog]
effect on VEGF levels: reduce VEGF levels
